Experimental findings from ChEMBL document CHEMBL1201862, “PubChem BioAssay data set” (2004) are described below.

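Tested at 5 concentrations; 48 h exposure; 96-well plates; endpoints linearly interpolated, else capped at highest concentration. At the GI50, growth is halved.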 Active and inactive are the calls of the source. Cut-off read from the data, not from the text of the source: active = GI50 up to about 1.1 µM and inactive = higher.

What all share (experiment): NCI-60 cell line screen, 48 h
Experiment [1] has as its system OVCAR-4.
For experiment [2], the system named is EKVX.
For experiment [3], the system named is UO-31.
Experiment [4] has as its system PC-3.
Experiment [5] relates to A549.
Experiment [6] concerns SW-620.
For experiment [7], the system named is HCC 2998.
Experiment [8] deals with UACC-257.
Experiment [9] deals with HL-60.
In experiment [10] the test system is NCI-H522.
Experiment [11] deals with RPMI-8226.
Experiment [12] relates to HOP-92.
For experiment [13], the system named is NCI-H23.
Experiment [14] relates to COLO 205.
The test system of experiment [15] is Hs-578T.
Experiment [16] deals with SK-MEL-28.
Experiment [17] has as its system HOP-62.
For experiment [18], the system named is M14.
Experiment [19] has as its system RXF 393.
Experiment [20] has as its system A498.

With `O=[N+]([O-])c1ccc(-n2nc3ccc4nonc4c3n2)cc1`, the GI50 in [1] is 9.08 µM (inactive); in experiment [2] it was 58.3 µM (inactive); in experiment [3], 21.3 µM (inactive); in experiment [4], 74.3 µM (inactive); in [5] it was 72.1 µM (inactive); in experiment [6] it was > 100 µM (inactive). The GI50 was 97.3 µM (inactive) in experiment [7]; > 100 µM (inactive) in experiment [8]; > 100 µM (inactive) in [9]; 28.8 µM (inactive) in experiment [10]; > 100 µM (inactive) in [11]; 19.6 µM (inactive) in experiment [12]. The GI50 in experiment [13] is 23.7 µM (inactive); in [14] it was > 100 µM (inactive); in [15] it was 13.3 µM (inactive); in experiment [16] it was 46.2 µM (inactive); in experiment [17] it was 16.6 µM (inactive); in experiment [18], 52.1 µM (inactive).
On to `CC(NC(=O)Cc1ccccc1)NC(=O)C(C)C(=O)Nc1ccccc1` (configuration not stated), for which the GI50 is > 100 µM (inactive) in experiment [1]; > 100 µM (inactive) in experiment [2]; 43.7 µM (inactive) in experiment [3]; > 100 µM (inactive) in experiment [4]; > 100 µM (inactive) in experiment [5]; > 100 µM (inactive) in [6]. The GI50 in [8] is > 100 µM (inactive); in [9], > 10 µM (inactive); in [10] it was 23.1 µM (inactive); in [11] it was > 100 µM (inactive); in [12], 44.2 µM (inactive); in experiment [13] it was > 100 µM (inactive). The GI50 in experiment [14] is > 100 µM (inactive); in experiment [19] it was 47.1 µM (inactive); in experiment [15], 23.7 µM (inactive); in experiment [18], > 100 µM (inactive).
On to `CN1CC[C@@H](c2c(O)cc(O)c3c(=O)cc(-c4ccccc4Cl)oc23)[C@@H](O)C1`, for which the GI50 in experiment [1] is 0.0643 µM (active); in [2] it was 0.0885 µM (active); in [3], 0.0266 µM (active); in experiment [4], 0.0385 µM (active); in experiment [5] it was 0.0543 µM (active); in experiment [6], 0.0333 µM (active). For the same compound, the GI50 in [7] was 0.0693 µM (active); in experiment [8] it was 0.0552 µM (active); in [9], 0.0211 µM (active); in experiment [20], 0.0507 µM (active); in [10] it was 0.0655 µM (active); in experiment [11], 0.0326 µM (active). Besides, the GI50 in experiment [12] is 0.0556 µM (active); in [13], 0.0365 µM (active); in experiment [14] it was 0.034 µM (active); in experiment [19], 0.0169 µM (active); in experiment [16], 0.0455 µM (active); in experiment [17], 0.0324 µM (active). In addition, the GI50 in experiment [18] was 0.034 µM (active).
In the case of `CCOc1cc2c(OCc3ccccc3)cc3c4cc(OC)c(OC)cc4c[n+](C)c3c2cc1OC`, the GI50 in [1] was 2.04 µM (inactive); in experiment [2] it was 17.8 µM (inactive); in experiment [3], 25.3 µM (inactive); in [4], 1.66 µM (inactive); in experiment [5], 4.82 µM (inactive); in experiment [6] it was 1.47 µM (inactive). Moreover, the GI50 in experiment [7] was 1.57 µM (inactive); in experiment [8], 1.62 µM (inactive); in [20], 22.2 µM (inactive); in [10], 0.391 µM (active); in experiment [11], 2.06 µM (inactive); in [12] it was 0.361 µM (active). Also, the GI50 in experiment [13] was 2.73 µM (inactive); in experiment [14], 0.259 µM (active); in experiment [19] it was 2.4 µM (inactive); in experiment [16] it was 1.36 µM (inactive); in experiment [17] it was 2.99 µM (inactive); in [18], 2.03 µM (inactive).
Take `O=C(CCn1ccnc1[N+](=O)[O-])NCCCn1ccnc1[N+](=O)[O-]`: the GI50 in [1], in [2], in experiment [3], in experiment [4], in experiment [5] and in experiment [6] was > 100 µM (inactive) each time. Besides, the GI50 in experiment [8], in [9], in experiment [20], in experiment [10], in experiment [11] and in experiment [13] was > 100 µM (inactive) throughout. For the same compound, the GI50 in experiment [14], in experiment [19], in [15], in experiment [16], in experiment [17] and in experiment [18] was > 100 µM (inactive) in each case.
`CCOC(=O)c1ccc(Nc2nc3ccccc3nc2-c2cccs2)cc1`: the GI50 is 35.3 µM (inactive) in experiment [2]; 73.6 µM (inactive) in [3]; 24.8 µM (inactive) in [4]; 66.4 µM (inactive) in experiment [5]; > 10 µM (inactive) in [6]; 23.1 µM (inactive) in experiment [7]. The GI50 in experiment [8] was 39.8 µM (inactive); in experiment [9] it was 24.8 µM (inactive); in experiment [10], 28.1 µM (inactive); in [11], 62.8 µM (inactive); in experiment [13], > 100 µM (inactive); in experiment [14], 96.6 µM (inactive). In addition, the GI50 in experiment [19] is 23.7 µM (inactive); in experiment [15] it was > 100 µM (inactive); in [16], > 100 µM (inactive); in experiment [17], > 100 µM (inactive).
For the compound `CC(CO)(Nc1ccc([N+](=O)[O-])cc1[N+](=O)[O-])C(=O)O` (configuration not stated), the GI50 in [2] was 29.2 µM (inactive); in [3], 15.9 µM (inactive); in [4], 64.6 µM (inactive); in [5], 38.3 µM (inactive); in experiment [6], 16.7 µM (inactive); in experiment [7], 22.4 µM (inactive). Moreover, the GI50 in experiment [8] is 24.9 µM (inactive); in experiment [9], 17.6 µM (inactive); in experiment [10], 18.7 µM (inactive); in [11], 29.3 µM (inactive); in experiment [13], 27.8 µM (inactive); in [14] it was 16.9 µM (inactive). Further, the GI50 was 12.2 µM (inactive) in experiment [19]; 17.3 µM (inactive) in experiment [15]; 22.1 µM (inactive) in experiment [16]; 49.1 µM (inactive) in [17]; 80.2 µM (inactive) in experiment [18].
For `CC1(C)O[C@H]([C@H](O)c2nnc3ccc(Cl)nn23)[C@@H]([C@H]2COC(C)(C)O2)O1`, the GI50 in experiment [1], in [2], in experiment [4], in [5], in experiment [6] and in [7] was > 100 µM (inactive) in each case. Besides, the GI50 in experiment [8], in experiment [9], in experiment [20], in [10], in experiment [11] and in experiment [13] was > 100 µM (inactive) each time. In addition, the GI50 in experiment [14], in experiment [19], in [15], in experiment [16], in [17] and in experiment [18] was > 100 µM (inactive) in each case.
Regarding `CC(=O)c1nc2ccccc2n1CC(=O)c1ccc([N+](=O)[O-])cc1`, the GI50 in [1] is 34.8 µM (inactive); in experiment [2] it was > 100 µM (inactive); in experiment [3], 14.9 µM (inactive); in [4] it was 10.4 µM (inactive); in [5] it was 11.4 µM (inactive); in experiment [6] it was 10.6 µM (inactive). The GI50 is 33.6 µM (inactive) in [8]; 13.8 µM (inactive) in [9]; 55.2 µM (inactive) in experiment [20]; 2.93 µM (inactive) in experiment [10]; 20.1 µM (inactive) in experiment [11]; 31.3 µM (inactive) in experiment [13]. For the same compound, the GI50 in experiment [14] was 34.8 µM (inactive); in [19], 23.8 µM (inactive); in experiment [15] it was 6.68 µM (inactive); in experiment [16], 52.6 µM (inactive); in [17], 5.06 µM (inactive); in experiment [18] it was 77.1 µM (inactive).
Turning to `Cc1sc2c(c1C)/C(=N\O)c1cccn1-2`, the GI50 in experiment [1] is 44.9 µM (inactive); in experiment [2] it was 22.2 µM (inactive); in experiment [3], 31.6 µM (inactive); in experiment [4], 29.9 µM (inactive); in experiment [5], 44.5 µM (inactive); in [6], 58.6 µM (inactive). The GI50 in experiment [7] is 37 µM (inactive); in experiment [8], 93.5 µM (inactive); in experiment [20] it was 24.2 µM (inactive); in [10] it was 19 µM (inactive); in [11] it was 37.8 µM (inactive); in experiment [14], > 100 µM (inactive). Moreover, the GI50 is 23.2 µM (inactive) in [19]; 16.9 µM (inactive) in [15]; 93.3 µM (inactive) in [16]; 25.3 µM (inactive) in experiment [17]; 64 µM (inactive) in experiment [18].
Consider `CCCC(=O)Nc1cc(/C=C/C(=O)N2CC(CCl)c3ccc([N+](=O)[O-])cc32)n(C)c1` (configuration not stated), for which the GI50 in experiment [1] is > 100 µM (inactive); in experiment [2], > 100 µM (inactive); in [3], > 100 µM (inactive); in experiment [4] it was > 100 µM (inactive); in experiment [5], 58.3 µM (inactive); in experiment [6], > 100 µM (inactive). Moreover, the GI50 in [7] was 57.7 µM (inactive); in [8], > 100 µM (inactive); in experiment [20] it was < 0.01 µM (active); in experiment [10], 28.8 µM (inactive); in [11], 14.5 µM (inactive); in [13] it was > 100 µM (inactive). In addition, the GI50 in experiment [14] is > 100 µM (inactive); in [19] it was > 100 µM (inactive); in experiment [15] it was 26.8 µM (inactive); in [16], > 100 µM (inactive); in experiment [18], > 100 µM (inactive).
